Values after ≈ are worked out from the molar mass of the structure shown. Active and inactive are the calls of the source. No cut-off for these calls is given here.
Columns and labels:
Candida albicans = assay: Antifungal activity against Candida albicans ATCC 10231 by modified microtiter plate assay; format: functional
Saccharomyces cerevisiae = assay: Antifungal activity against Saccharomyces cerevisiae by modified microtiter plate assay; format: functional
Staphylococcus aureus = assay: Antibacterial activity against Staphylococcus aureus ATCC 6535 by modified microtiter plate assay; format: functional
Bacillus cereus = assay: Antibacterial activity against Bacillus cereus by modified microtiter plate assay; format: functional
Mus musculus [1] = species: Mus musculus; assay: Antiproliferative activity against mouse B16B15b cells at 1 uM after 18 hrs by alamar blue assay relative to control; format: functional, cell-based
Gallus gallus [2] = species: Gallus gallus; assay: Antiangiogenic activity in fertilized white leghorn chicken eggs at 57 uM/disk by CAM assay; format: functional; settings: Egg
Gallus gallus [3] = species: Gallus gallus; assay: Antiangiogenic activity in fertilized white leghorn chicken eggs at 12 uM/disk by CAM assay; format: functional; settings: Egg
Mus musculus [4] = species: Mus musculus; assay: Inhibition of mouse B16B15b cell migration at 1 uM by Boyden's camber assay; format: functional
Mus musculus [5] = species: Mus musculus; assay: Inhibition of mouse B16B15b cell migration assessed as wound closure rate at 1 uM after 14 hrs by wound healing assay relative to control; format: functional

SMILES	MIC (Candida albicans)	MIC (Saccharomyces cerevisiae)	Activity (Mus musculus [1])	other results
C/C1=C/C(=O)O[C@@H]2CC(CC[C@H](C)/C=C\C=C\CC1)O[C@@](O)([C@H]1CSC(=O)N1)C2	2.5 µM (≈ 1.05 µg/mL)	2.5 µM (≈ 1.05 µg/mL)		
CC(=O)N1C(=O)SC[C@H]1C(=O)/C=C/C[C@H]1CC[C@H](C)/C=C\CC/C(C)=C\C(=O)O1	2.5 µM (≈ 1.05 µg/mL)	2.5 µM (≈ 1.05 µg/mL)	Active	MIC (Staphylococcus aureus): 17.8 µM (≈ 7.47 µg/mL); MIC (Bacillus cereus): 17.8 µM (≈ 7.47 µg/mL)
COc1cc(/C=C/C(=O)CC(=O)/C=C/c2ccc(O)c(OC)c2)ccc1O				Activity (Gallus gallus [2]): Active
CO[C@]1([C@@H]2CSC(=O)N2)C[C@H]2C[C@@H](CC[C@H](C)/C=C\CC/C(C)=C\C(=O)O2)O1 [15-METHOXYLATRUNCULIN B]	2.5 µM (≈ 1.02 µg/mL)	2.5 µM (≈ 1.02 µg/mL)		Activity (Gallus gallus [3]): Active; Activity (Mus musculus [4]): Active
CCCCO[C@]1([C@@H]2CSC(=O)N2)C[C@H]2C[C@@H](CC[C@H](C)/C=C\CC/C(C)=C\C(=O)O2)O1 [15-O-BUTYLLATRUNCULIN B]	2.5 µM (≈ 1.13 µg/mL)	2.5 µM (≈ 1.13 µg/mL)	Active	
CCCCCCCCO[C@]1([C@@H]2CSC(=O)N2)C[C@H]2C[C@@H](CC[C@H](C)/C=C\CC/C(C)=C\C(=O)O2)O1 [15-O-OCTYLLATRUNCULIN B]	2.5 µM (≈ 1.27 µg/mL)	2.5 µM (≈ 1.27 µg/mL)	Active	MIC (Staphylococcus aureus): 14.7 µM (≈ 7.46 µg/mL); MIC (Bacillus cereus): 14.7 µM (≈ 7.46 µg/mL)
Clc1ccccc1C(c1ccccc1)(c1ccccc1)n1ccnc1 [CLOTRIMAZOLE]	21.7 µM (≈ 7.48 µg/mL)	21.7 µM (≈ 7.48 µg/mL)		
C/C1=C/C(=O)O[C@@H]2C[C@@H](CC[C@H](C)/C=C\CC1)O[C@@](O)([C@@H]1CSC(=O)N1)C2 [LATRUNCULIN B]	2.5 µM (≈ 0.989 µg/mL)	2.5 µM (≈ 0.989 µg/mL)	Active	Activity (Mus musculus [5]): Active
CC(=O)N1C(=O)SC[C@H]1[C@@]1(O)C[C@H]2C[C@@H](CC[C@H](C)/C=C\CC/C(C)=C\C(=O)O2)O1 [N-ACETYLLATRUNCULIN B]	2.5 µM (≈ 1.09 µg/mL)	2.5 µM (≈ 1.09 µg/mL)		Activity (Mus musculus [5]): Active
C/C1=C/C(=O)O[C@@H]2C[C@@H](CC[C@H](C)/C=C\CC1)O[C@@](O)([C@@H]1CSC(=O)N1CO)C2 [N-HYDROXYMETHYLLATRUNCULIN B]	2.5 µM (≈ 1.06 µg/mL)	2.5 µM (≈ 1.06 µg/mL)		Activity (Mus musculus [4]): Active
CC1(C)S[C@@H]2[C@H](NC(=O)Cc3ccccc3)C(=O)N2[C@H]1C(=O)O [PENICILLIN G]				MIC (Staphylococcus aureus): 22.4 µM (≈ 7.49 µg/mL); MIC (Bacillus cereus): 22.4 µM (≈ 7.49 µg/mL)

Reference: ChEMBL document CHEMBL1157247, “Bioactive natural and semisynthetic latrunculins” (2006)
